# Results reported in US5230897A, “Transdermal pentamidine” (priority 1991, dated 1993).
# Where “and” joins values, the source holds several entries; their conditions need not be identical. Identical values can stand only once. Like-named read-outs stand apart in the source and are kept apart here.
# Key:
# [1] = Procedure: The in vitro studies described herein measured the rate of pentamidine transport across skin excised from a "nude" mouse. The skin is placed in a vertical two-chambered device. The skin partitions between a donor compartment containing a formulation to be tested and a receptor compartment containing the aqueous medium. The skin is clamped in place with skin epidermis facing the donor compartment. A water jacket maintains a constant temperature (37° C.).
# The following pharmaceutical formulations were prepared by dissolving any dry ingredients (i.e. pentamidine isethionate, terpene, methyl paraben, propyl paraben) in the solvent (i.e. isopropyl alcohol/water or propylene glycol/water). […] Gentle stirring was then continued for the next 15 minutes or until the solution thickened. When polyquaternium-10 is the polymer heating was required to make the formulation gel.
# [2] = rhesus monkey, in vivo
# [3] = Pentamidine pharmacokinetics after transdermal application in Rhesus monkeys (plasma, urine, residual analysis)
# [4] = Pentamidine pharmacokinetics after IV infusion in Rhesus monkeys (plasma, urine); format: in vivo
# Procedure: Pentamidine was administered to four Rhesus monkeys by an IV infusion of 1 hr duration which was designed to deliver 4 mg drug/kg animal weight. Urine samples were obtained at -24 to 0 hr, 0 to 3 hr, 3 to 7 hr, 7 to 24 hr and 24 to 48 hr. Blood (2 ml) was withdrawn from an arm vein at -24 hr, 0.5 hr, 1 hr, 2 hr, 3 hr, 5 hr, 7 hr, 24 hr and 48 hr after the end of the IV infusion. Plasma was obtained from the heparinized blood by centrifugation.
smiles,measurement,setting,value
CC(C)[C@@H]1CC[C@@H](C)C[C@@H]1O (relative stereo) [neomenthol],penetration enhancement for transdermal delivery of pentamidine,[1]; result in words,effective penetration enhancers
CC12CCC(CC1=O)C2(C)C (stereo not drawn) [camphor],penetration enhancement for transdermal delivery of pentamidine,[1]; result in words,effective penetration enhancers
Cc1ccc(C(C)C)cc1O [carvacrol],penetration enhancement for transdermal delivery of pentamidine,[1]; result in words,effective penetration enhancers
C=C(C)C1CC=C(C)[C@@H](O)C1 (stereo partly drawn) [carveol],penetration enhancement for transdermal delivery of pentamidine,[1],effective penetration enhancers
C=C(C)C1CC=C(C)C(=O)C1 (stereo not drawn) [carvone],penetration enhancement for transdermal delivery of pentamidine,[1]; result in words,effective penetration enhancers
CC(C)=CCCC(C)=CC=O [citral],penetration enhancement for transdermal delivery of pentamidine,[1]; result in words,effective penetration enhancers
C=C(C)C1CCC(C)C(O)C1 (stereo not drawn) [dihydrocarveol],penetration enhancement for transdermal delivery of pentamidine,[1]; result in words,effective penetration enhancers
C=C(C)C1CCC(C)C(=O)C1 (stereo not drawn) [dihydrocarvone],penetration enhancement for transdermal delivery of pentamidine,[1]; result in words,effective penetration enhancers
C=C(C)[C@@H]1CC[C@@H](C)C[C@H]1O [isopulegol],penetration enhancement for transdermal delivery of pentamidine,[1]; result in words,effective penetration enhancers
C=CC(C)(O)CCC=C(C)C (stereo not drawn) [linalol],penetration enhancement for transdermal delivery of pentamidine,[1]; result in words,effective penetration enhancers
CC1CCC(C(C)C)C(O)C1 (stereo not drawn) [menthol],penetration enhancement for transdermal delivery of pentamidine,[1]; result in words,effective penetration enhancers
CC(C)[C@@H]1CC[C@@H](C)CC1=O [menthone],penetration enhancement for transdermal delivery of pentamidine,[1]; result in words,effective penetration enhancers
"N=C(N)c1ccc(OCCCCCOc2ccc(C(=N)N)cc2)cc1 [pentamidine, 4,4'-[1,5-Pentanediylbis(oxy)]bisbenzenecarboximidamide]",blood levels of pentamidine by transdermal delivery,[2],effective blood levels of pentamidine can be achieved by transdermal delivery
same,% Absolute Bioavail.,"[3]; (AUCtrans/AUCiv) × (DOSEiv/DOSEtrans) × 100, individual monkeys 1, 2, 3, 4",99.2% and 29.03% and 18.99% and 27.19%
same,residual pentamidine recovered from transdermal chambers,[3]; chambers removed 24 hr after application,Only small amounts of the original dose of pentamidine were recovered
same,"% Dose absorbed excreted in urine, transdermal dose 0-48, Average (SD)","[3]; dose absorbed from urine % bioavailability, average of 4 monkeys",2.26 (1.45) %
same,"% Dose absorbed excreted in urine, transdermal dose 0-48","[3]; dose absorbed from urine % bioavailability, individual monkeys 1, 2, 3, 4",2.15% and 3.88% and 2.62% and 0.38%
same,% Bioavailability,"[3]; dose-corrected ratio of total pentamidine excreted in urine, transdermal vs IV, individual monkeys 1, 2, 3, 4",50.34% and 19.32% and 73.28% and 85.62%
same,"AUC, Trans (0-72 hr)","[3]; plasma, transdermal 292 mg, individual monkeys 1, 2, 3, 4, 4320 min",7407 (ng/ml) h and 3426 (ng/ml) h and 2721 (ng/ml) h and 4384 (ng/ml) h
same,bioavailability,"[3]; rhesus monkey, plasma, topical or ocular, 292 mg, % Absolute Bioavail., Average (SD), (AUCtrans/AUCiv) × (DOSEiv/DOSEtrans) × 100, average of 4 monkeys",43.6%
same,AUC at 72 h,"[3]; rhesus monkey, plasma, topical or ocular, 292 mg, AUC, Trans (0-72 hr), Average (SD), transdermal 292 mg, average of 4 monkeys",4480 ng·h/mL
same,Fa at 24 h,"[3]; rhesus monkey, residual in pads, topical or ocular, 292 mg, % Absorbed (from residual analysis in the pads), Average (SD), transdermal, average of 4 monkeys",57.7%
same,bioavailability,"[3]; rhesus monkey, urine, topical or ocular, 292 mg, % Bioavailability, Average (SD), dose-corrected ratio of total pentamidine excreted in urine, transdermal vs IV, average of 4 monkeys",57.1%
same,% Absorbed (from residual analysis in the pads),"[3]; transdermal, individual monkeys 1, 2, 3, 4, 1440 min",70.9% and 54.4% and 58.8% and 46.5%
same,"Urine Cum. Pentam., Trans. 0-48 h, Average (SD)","[3]; urine, transdermal, average of 4 monkeys",2.98 (1.97) mg
same,"Urine Cum. Pentam., Trans. 0-48 h","[3]; urine, transdermal, individual monkeys 1, 2, 3, 4",3.16 mg and 2.18 mg and 5.61 mg and 0.95 mg
same,"Total Clearance, IV dose","[4]; DOSEiv/AUCiv, individual monkeys 1, 2, 3, 4, 4 mg/kg",39.27 lt/h and 24.18 lt/h and 20.38 lt/h and 19.38 lt/h
same,"AUC, IV (0-5 h)","[4]; plasma, IV 4 mg/kg, 1 hr infusion, individual monkeys 1, 2, 3, 4, 4 mg/kg, 300 min",428 (ng/ml) h and 719 (ng/ml) h and 883 (ng/ml) h and 784 (ng/ml) h
same,AUC at 5 h,"[4]; rhesus monkey, plasma, iv, 4 mg/kg, AUC, IV (0-5 h), Average (SD), IV 4 mg/kg, 1 hr infusion, average of 4 monkeys",704 ng·h/mL
same,clearance,"[4]; rhesus monkey, plasma, iv, 4 mg/kg, DOSEiv/AUCiv, average of 4 monkeys, read-out: Total Clearance, IV dose, Average (SD) (converted)",430 mL/min
same,dose excreted at 48 h,"[4]; rhesus monkey, urine, iv, 4 mg/kg, IV, average of 4 monkeys, read-out: % Dose excreted in urine, IV dose 0-48 h, Average (SD)",2.28%
same,CL renal at 48 h,"[4]; rhesus monkey, urine, iv, 4 mg/kg, amount in urine (0-48 h)/AUCiv, average of 4 monkeys, read-out: Renal Clearance, IV dose, Average (SD) (converted)",10 mL/min
same,"Urine Cum. Pentam., IV 0-48 h, Average (SD)","[4]; urine, IV, average of 4 monkeys",0.39 (0.27) mg
same,"Urine Cum. Pentam., IV 0-48 h","[4]; urine, IV, individual monkeys 1, 2, 3, 4",0.360 mg and 0.691 mg and 0.473 mg and 0.054 mg
CC(C)=C1CC[C@@H](C)CC1=O [pulegone],penetration enhancement for transdermal delivery of pentamidine,[1]; result in words,effective penetration enhancers
C/C=C/c1ccc(OC)cc1 [t-anethole],penetration enhancement for transdermal delivery of pentamidine,[1]; result in words,effective penetration enhancers
CC1=CCC(O)(C(C)C)CC1 (stereo not drawn) [terpene-4-ol],penetration enhancement for transdermal delivery of pentamidine,[1],effective penetration enhancers
Cc1ccc(C(C)C)c(O)c1 [thymol],penetration enhancement for transdermal delivery of pentamidine,[1]; result in words,effective penetration enhancers
CC1=CCC(C(C)(C)O)CC1 (stereo not drawn) [α-terpineol],penetration enhancement for transdermal delivery of pentamidine,[1]; result in words,effective penetration enhancers
